This is an account of results in patent US20100016274A1, “BETA-LACTAM CANNABINOID RECEPTOR MODULATORS” (priority 2006, published 2010).

Experiment [1] addresses T1, cannabinoid receptor-2 (CB2), CB2R-containing cell membrane; hCB2 receptors (Homo sapiens, UniProt P34972).
T1 construct: purchased Applied Cell Sciences Inc, Rockville, Md
The experiment in a line: Cannabinoid Receptor-2 (CB2) Binding Assay, Method A using cell membranes (displacement of 3H-CP55940). To be noted: for IC50: displacement of 3H-CP55940 (1 nM), CB2R-containing cell membrane; for Ki: displacement of 3H-CP55940, CB2R-containing cell membrane, from serial dilutions. Here is the method: Method A using cell membranes. A compound is dissolved in DMSO and diluted to 1 M as a stock solution. […] A CB2R-containing cell membrane (Applied Cell Sciences Inc, Rockville, Md.) is diluted with binding buffer to a protein concentration of 28 μg/ml.
(§1) The mixture is incubated for 90 min at room temperature, then filtered through Whatman glass fiber C disc filter in a vacuum manifold. The filter is washed three times each with 2.5 ml cold wash buffer (binding buffer with only 2.5 mg/ml BSA). The vacuum-dried filter is transferred to a scintillation vial, treated with 3 ml Eco-Scint, and the radioactivity is read on a Beckman LS6500 scintillation counter from which an IC50 value is calculated. The corresponding Ki values are obtained from serial dilutions according to this method, and calculated through the use of a non-linear regression program (Graphpad Inc, San Diego, Calif.).
A general note: Displacement assays read how much labelled ligand stays bound in the presence of the test substance.

For experiment [2], the target named is T2, cannabinoid receptor-1 (CB1), CB1R-containing cell membrane (Homo sapiens, UniProt P21554).
T2 construct: purchased Applied Cell Sciences Inc, Rockville, Md
T2 sequence (P21554 whole entry, species assumed): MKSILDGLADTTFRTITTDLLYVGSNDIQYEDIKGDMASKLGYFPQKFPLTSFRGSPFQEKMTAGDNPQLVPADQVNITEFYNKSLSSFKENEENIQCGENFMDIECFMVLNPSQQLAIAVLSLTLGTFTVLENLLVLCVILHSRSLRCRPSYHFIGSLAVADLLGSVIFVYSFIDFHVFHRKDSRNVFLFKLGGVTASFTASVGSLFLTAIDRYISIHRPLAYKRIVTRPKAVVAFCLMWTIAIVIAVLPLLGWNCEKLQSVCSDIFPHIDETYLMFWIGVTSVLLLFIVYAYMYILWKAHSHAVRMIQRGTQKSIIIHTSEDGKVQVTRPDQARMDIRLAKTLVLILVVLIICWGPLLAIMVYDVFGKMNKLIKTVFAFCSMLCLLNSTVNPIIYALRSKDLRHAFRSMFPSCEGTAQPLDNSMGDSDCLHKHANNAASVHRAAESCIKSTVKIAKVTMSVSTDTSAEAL
The experiment in a line: biochemical. The format is binding. As for the experimental part: Method A using cell membranes. A compound is dissolved in DMSO and diluted to 1 M as a stock solution. […] A CB1R-containing cell membrane (Applied Cell Sciences Inc, Rockville, Md.) is diluted with binding buffer to a protein concentration of 28 μg/ml.
as §1

Where [3] appears, read: IC50, displacement of 3H-CP55940 (1 nM) on CB1 receptors.
[4] abbreviates: displacement of 3H-CP55940 (1 nM) on CB1 receptors, read-out: IC50.

Where two headings read alike, the source gives them in different places.

T1 sequence (P34972 whole entry): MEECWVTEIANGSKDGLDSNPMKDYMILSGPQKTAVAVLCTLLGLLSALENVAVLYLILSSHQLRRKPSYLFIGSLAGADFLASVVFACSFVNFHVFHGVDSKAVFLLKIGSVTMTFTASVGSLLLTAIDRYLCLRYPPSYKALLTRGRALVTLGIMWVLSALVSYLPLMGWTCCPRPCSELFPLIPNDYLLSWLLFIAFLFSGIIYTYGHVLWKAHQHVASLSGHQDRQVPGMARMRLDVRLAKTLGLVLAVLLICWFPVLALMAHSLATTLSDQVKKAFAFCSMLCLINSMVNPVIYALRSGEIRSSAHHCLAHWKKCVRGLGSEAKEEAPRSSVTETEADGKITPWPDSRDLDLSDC

As a reminder, the IC50 is the point on the concentration scale where inhibition reaches its midpoint. With `CC(C)(C)OC(=O)CCC(C(=O)N1CCN(CCc2ccccc2)CC1)N1C(=O)C(N2C(=O)OCC2c2ccccc2)C1C=Cc1ccccc1` [Example 19E, 2(S)-(tert-Butoxycarbonylethyl)-2-[3(S)-(4(S)-phenyloxazolidin-2-on-3-yl)-4(R)-(2-styryl)azetidin-2-on-1-yl]acetic acid N-[4-(2-phenylethyl)]piperazinamide], the IC50 in experiment [1] is less than 10 µM. In experiment [1], `CC(C)(C)OC(=O)CC(C(=O)NCc1cccc(C(F)(F)F)c1)N1C(=O)C(N2C(=O)OCC2c2ccccc2)C1C=Cc1ccccc1` [Example 19F, 2(R)-(tert-Butoxycarbonylmethyl)-2-[3(S)-(4(S)-phenyloxazolidin-2-on-3-yl)-4(R)-(2-styryl)azetidin-2-on-1-yl]acetic acid N-(3-trifluoromethylbenzyl)amide] gave an IC50 of less than 1 µM.

For `CC(C)(C)OC(=O)CCC(C(=O)NCc1cccc(C(F)(F)F)c1)N1C(=O)C(N2C(=O)OCC2c2ccccc2)C1C=Cc1ccccc1` [Example 19H, 2(R)-(tert-Butoxycarbonylethyl)-2-[3 (S)-(4(S)-phenyloxazolidin-2-on-3-yl)-4(R)-(2-styryl)azetidin-2-on-1-yl]acetic acid N-(3-trifluoromethylbenzyl)amide], in experiment [1], the IC50 was less than 1 µM. In turn, `O=C(CC(C(=O)N1CCN(CCc2ccccc2)CC1)N1C(=O)C(N2C(=O)OCC2c2ccccc2)C1C=Cc1ccccc1)NCc1cccc(C(F)(F)F)c1` (stereo not drawn) [Example 28A] yielded an IC50 in experiment [1] of less than 10 µM. By Ki is commonly meant the equilibrium dissociation constant of an inhibitor or competing ligand from its target. Take `O=C(NCc1cccc(C(F)(F)F)c1)C(CC(=O)N1CCC(N2CCCCC2)CC1)N1C(=O)C(N2C(=O)OCC2c2ccccc2)C1C=Cc1ccccc1` (stereo not drawn) [Example 31A]: in experiment [1], the IC50 was 0.379 µM and the Ki came out at 0.253 µM. On to `O=C(NC1(c2cccc(F)c2)CCCC1)C(CCC(=O)N1CCN(C2CCCCC2)CC1)N1C(=O)C(N2C(=O)OCC2c2ccccc2)C1C=Cc1ccccc1` (stereo not drawn) [Example 42H], for which the IC50 in experiment [1] was approximately 10 µM. Turning to `O=C(NC1(c2ccc(Cl)cc2)CC1)C(CCC(=O)N1CCN(C2CCCCC2)CC1)N1C(=O)C(N2C(=O)OCC2c2ccccc2)C1C=Cc1ccccc1` (stereo not drawn) [Example 42I], in experiment [1], the IC50 was approximately 10 µM.

In the case of `O=C(NC1(c2ccc(Cl)cc2)CCCC1)C(CCC(=O)N1CCN(C2CCCCC2)CC1)N1C(=O)C(N2C(=O)OCC2c2ccccc2)C1C=Cc1ccccc1` (stereo not drawn) [Example 42J], the IC50 in experiment [1] was approximately 10 µM. Take `Cc1ccc(C2(NC(=O)C(CCC(=O)N3CCN(C4CCCCC4)CC3)N3C(=O)C(N4C(=O)OCC4c4ccccc4)C3C=Cc3ccccc3)CC2)cc1` (stereo not drawn) [Example 42K]: the IC50 in experiment [1] is approximately 10 µM.

In turn, `Cc1ccc(C2(NC(=O)C(CCC(=O)N3CCN(C4CCCCC4)CC3)N3C(=O)C(N4C(=O)OCC4c4ccccc4)C3C=Cc3ccccc3)CCCC2)cc1` (stereo not drawn) [Example 42L] gave an IC50 in experiment [1] of approximately 10 µM. On to `COc1ccc(C2(NC(=O)C(CCC(=O)N3CCN(C4CCCCC4)CC3)N3C(=O)C(N4C(=O)OCC4c4ccccc4)C3C=Cc3ccccc3)CC2)cc1` (stereo not drawn) [Example 42M], for which the IC50 in experiment [1] was approximately 10 µM.

With `O=C(NCc1cccc(C(F)(F)F)c1)C(CCC(=O)N1CCN(CCc2ccccc2)CC1)N1C(=O)C(N2C(=O)OCC2c2ccccc2)C1C=Cc1ccccc1` (stereo not drawn) [Example 44B], the IC50 in experiment [1] is less than 1 µM. Turning to `CCN1CCN(C(=O)CCC(C(=O)NCc2cccc(C(F)(F)F)c2)N2C(=O)C(N3C(=O)OCC3c3ccccc3)C2C(Br)=Cc2ccccc2)CC1` (stereo not drawn) [Example 45U], the IC50 in experiment [1] is less than 10 µM. In turn, `O=C(C[C@@H](C(=O)NCc1cccc(C(F)(F)F)c1)N1C(=O)[C@@H](N2C(=O)OC[C@@H]2c2ccccc2)[C@H]1CCc1ccccc1)NC1CCN(Cc2ccccc2)CC1` [Example 53A, 2(S)-[[(1-Benzylpiperidin-4-yl)amino]carbonylmethyl]-2-[3 (S)-(4(S)-phenyloxazolidin-2-on-3-yl)-4(R)-(2-phenyleth-1-yl)azetidin-2-on-1-yl]acetic acid N-(3-trifluoromethylbenzyl)amide] showed an IC50 in experiment [2] (setting [3]) of less than 10 µM. In experiment [1], `O=C(C(CCCc1ccccc1)N1C(=O)C(N2C(=O)OCC2c2ccccc2)C1C=Cc1ccccc1)N1CCN(C2CCCCC2)CC1` (stereo not drawn) [Example 62E] displayed an IC50 of 0.539 µM and a Ki of 0.360 µM.

In the case of `O=C(CN1C(=O)C(c2ccccc2)C1C=Cc1ccccc1)OCc1ccccc1` (stereo not drawn) [Example 70A, Benzyl 2-[3(S*)-2-Phenyl)-4(R*)-(2-styryl)azetidin-2-on-1-yl]acetate], the IC50 in experiment [2] (setting [3]) was less than 10 µM. Take `O=C(CN1C(=O)C(c2cccs2)C1C=Cc1ccccc1)OCc1ccccc1` (stereo not drawn) [Example 70B, Benzyl 2-[3(S*)-2-Thienyl)-4(R*)-(2-styryl)azetidin-2-on-1-yl]acetate]: the IC50 in experiment [2] (setting [3]) is less than 10 µM; in experiment [1], approximately 1 µM. Consider `O=C(NC1CCCc2ccccc21)[C@H](CCC(=O)N1CCN(C2CCCCC2)CC1)N1C(=O)[C@@H](N2C(=O)OC[C@@H]2c2ccccc2)[C@H]1/C=C/c1cccc2ccsc12` (stereo partly drawn) [Example 72A], for which, in experiment [2] (setting [4]), the IC50 was approximately 10 µM. Turning to `O=C(NC1CCCc2ccccc21)[C@H](CCC(=O)N1CCN(C2CCCCC2)CC1)N1C(=O)[C@@H](N2C(=O)OC[C@@H]2c2ccccc2)[C@H]1/C=C/c1cccs1` (stereo partly drawn) [Example 72C], the IC50 in experiment [2] (setting [3]) was approximately 10 µM. `O=C(N[C@@H]1CCCc2ccccc21)[C@H](CCC(=O)N1CCN(C2CCCCCC2)CC1)N1C(=O)[C@@H](N2C(=O)OC[C@@H]2c2ccccc2)[C@H]1/C=C/c1ccccc1` [Example 73A]: the IC50 in experiment [2] (setting [3]) is less than 10 µM. Turning to `O=C(N[C@@H]1CCCc2ccccc21)[C@H](CCC(=O)N1CCN(C2CCSCC2)CC1)N1C(=O)[C@@H](N2C(=O)OC[C@@H]2c2ccccc2)[C@H]1/C=C/c1ccccc1` [Example 73B], the IC50 in experiment [2] (setting [4]) was approximately 10 µM. For `O=C(NCc1cccc(C(F)(F)F)c1)[C@H](CCC(=O)N1CCN(C2CCCCC2)CC1)N1C(=O)[C@H](N2C(=O)OC[C@@H]2c2ccccc2)[C@@H]1/C=C/c1ccccc1` [Example 73C], the half-maximal inhibitory concentration (IC50) in experiment [2] (setting [3]) was approximately 10 µM.

For the compound `O=C(CC[C@@H](C(=O)N1CCN(c2ccccc2)CC1)N1C(=O)[C@@H](N2C(=O)OC[C@@H]2c2ccccc2)[C@H]1/C=C/c1ccccc1)NCc1cc(F)cc(C(F)(F)F)c1` [Example 73D], the IC50 in experiment [2] (setting [4]) is approximately 10 µM. For the compound `O=C(CC[C@@H](C(=O)N1CCN(CCC2CCCCC2)CC1)N1C(=O)[C@@H](N2C(=O)OC[C@@H]2c2ccccc2)[C@H]1/C=C/c1ccccc1)NCc1cc(F)cc(C(F)(F)F)c1` [Example 73E], in experiment [2] (setting [3]), the IC50 was less than 10 µM.

Regarding `O=C(CC[C@@H](C(=O)N1CCN(c2ccccn2)CC1)N1C(=O)[C@@H](N2C(=O)OC[C@@H]2c2ccccc2)[C@H]1/C=C/c1ccccc1)NCc1cc(F)cc(C(F)(F)F)c1` [Example 73F], in experiment [2] (setting [4]), the IC50 was approximately 10 µM. Consider `O=C(CC[C@@H](C(=O)N1CCN(CCc2cccs2)CC1)N1C(=O)[C@@H](N2C(=O)OC[C@@H]2c2ccccc2)[C@H]1/C=C/c1ccccc1)NCc1cc(F)cc(C(F)(F)F)c1` [Example 73G], for which, in experiment [2] (setting [4]), the IC50 was approximately 10 µM. Consider `C[C@@H](NC(=O)[C@H](CCC(=O)N1CCN(C2CCCCC2)CC1)N1C(=O)[C@@H](N2C(=O)OC[C@@H]2c2cccc(Cl)c2)[C@H]1/C=C/c1ccccc1)c1ccccc1` [Example 73H], for which the IC50 in experiment [2] (setting [4]) is approximately 10 µM.
